# Active and inactive are the calls of the source. No cut-off for these calls is given here.
# Experiments:
# Staphylococcus aureus [1] = experiment: microbe, parasite or virus in culture; type: functional; settings: ATCC 25923
# Description: (§1) Antibacterial activity against Staphylococcus aureus ATCC 25923 after 12 to 18 hrs by twofold dilution method
# Staphylococcus aureus [2] = experiment: microbe, parasite or virus in culture; type: functional; settings: ATCC 33591
# Description: (§2) Antibacterial activity against methicillin-resistant Staphylococcus aureus ATCC 33591 after 12 to 18 hrs by twofold dilution method
# Enterococcus faecalis [3] = experiment: Antibacterial activity against vancomycin-resistant Enterococcus faecalis ATCC 51299 after 12 to 18 hrs by twofold dilution method; type: functional
# [4] = tested on: Mycolicibacterium smegmatis; experiment: Antibacterial activity against Mycobacterium smegmatis ATCC 14468 after 12 to 18 hrs by twofold dilution method; type: functional
# Pseudomonas aeruginosa [5] = experiment: Antibacterial activity against Pseudomonas aeruginosa ATCC 27853 after 12 to 18 hrs by twofold dilution method; type: functional
# Enterococcus faecalis [6] = experiment: Antibacterial activity against Enterococcus faecalis ATCC 29212 after 12 to 18 hrs by twofold dilution method; type: functional
# Klebsiella pneumoniae [7] = experiment: Antibacterial activity against Klebsiella pneumoniae ATCC 13883 after 12 to 18 hrs by twofold dilution method; type: functional
# Escherichia coli [8] = experiment: Antibacterial activity against Escherichia coli ATCC 25922 after 12 to 18 hrs by twofold dilution method; type: functional
# Pseudomonas aeruginosa [9] = settings: ATCC 27853
# Staphylococcus aureus [10] = settings: ATCC 25923
# Description: as §1
# Klebsiella pneumoniae [11] = settings: ATCC 13883
# Escherichia coli [12] = settings: ATCC 25922
# [13] = tested on: Mycolicibacterium smegmatis; settings: ATCC 14468
# Enterococcus faecalis [14] = settings: ATCC 51299
# Enterococcus faecalis [15] = settings: ATCC 29212
# Staphylococcus aureus [16] = settings: ATCC 33591
# Description: as §2
# [17] = Solubility of the compound in aqueous medium; type: physicochemical; settings: buffer
# Staphylococcus aureus [18] = experiment: Antibacterial activity against Staphylococcus aureus ATCC 25923 by agar diffusion assay; type: functional, organism-based
# Escherichia coli [19] = experiment: Antibacterial activity against Escherichia coli ATCC 25922 by agar diffusion assay; type: functional, organism-based
Compound,MIC (Staphylococcus aureus [1]) [µg/mL],MIC (Staphylococcus aureus [2]) [µg/mL],MIC (Enterococcus faecalis [3]) [µg/mL],MIC [4] [µg/mL],MIC (Pseudomonas aeruginosa [5]) [µg/mL],MIC (Enterococcus faecalis [6]) [µg/mL],MIC (Klebsiella pneumoniae [7]) [µg/mL],MIC (Escherichia coli [8]) [µg/mL],solubility [17],Activity (Staphylococcus aureus [18]),Activity (Escherichia coli [19]),also measured
CCCCCCCCCCCCCCCC[N+](C)(C)Cc1ccccc1.[Cl-] [CETALKONIUM CHLORIDE],2,1,–,–,–,–,–,–,–,–,–,–
Cn1n[n+](C)c2c1C(=O)c1ccccc1C2=O.[Cl-],4,4,125,32,125,≥ 250,64,32,–,–,–,–
NC[C@H]1O[C@H](O[C@H]2[C@H](O)[C@@H](O[C@H]3O[C@H](CO)[C@@H](O)[C@H](N)[C@H]3O)[C@H](N)C[C@@H]2N)[C@H](O)[C@@H](O)[C@@H]1O [KANAMYCIN],1,125,–,1,125,–,0.5,2,–,–,–,–
hexadecyltrimethylammonium bromide,–,–,–,–,–,–,–,–,–,–,–,MIC (Pseudomonas aeruginosa [9]): 16 µg/mL; MIC (Staphylococcus aureus [10]): 0.5 µg/mL; MIC (Klebsiella pneumoniae [11]): 1 µg/mL; MIC (Escherichia coli [12]): 1 µg/mL; MIC [13]: 1 µg/mL; MIC (Enterococcus faecalis [14]): 4 µg/mL; MIC (Enterococcus faecalis [15]): 2 µg/mL; MIC (Staphylococcus aureus [16]): 2 µg/mL
CCCCCCCCCCCCn1nnc2c1C(=O)c1ccccc1C2=O,–,–,–,–,–,–,–,–,Insoluble,inactive,inactive,–
CC(C)(C)OC(=O)N1CCC(n2nnc3c2C(=O)c2ccccc2C3=O)CC1,–,–,–,–,–,–,–,–,Insoluble,inactive,inactive,–
CCCCCn1nnc2c1C(=O)c1ccccc1C2=O,–,–,–,–,–,–,–,–,Insoluble,inactive,inactive,–
CCCCCCCCn1n[n+](C)c2c1C(=O)c1ccccc1C2=O.[Cl-],0.032,0.5,125,1,≥ 250,125,8,8,–,–,–,–
C[n+]1nn(Cc2ccccc2)c2c1C(=O)c1ccccc1C2=O.[Cl-],2,0.5,≥ 250,8,125,≥ 250,8,8,–,–,–,–
CCn1nnc2c1C(=O)c1ccccc1C2=O,–,–,–,–,–,–,–,–,Insoluble,inactive,inactive,–
NC[C@@H]1O[C@H](O[C@H]2[C@@H](O)[C@H](O[C@@H]3[C@@H](O)[C@H](N)C[C@H](N)[C@H]3O[C@H]3O[C@H](CN)[C@@H](O)[C@H](O)[C@H]3N)O[C@@H]2CO)[C@H](N)[C@@H](O)[C@@H]1O [FRAMYCETIN],1,125,125,–,64,16,2,4,–,–,–,–
C[n+]1nn(Cc2ccccn2)c2c1C(=O)c1ccccc1C2=O.[Cl-],2,2,≥ 250,16,≥ 250,≥ 250,16,16,–,–,–,–
CCCCCn1n[n+](C)c2c1C(=O)c1ccccc1C2=O.[Cl-],2,1,125,8,≥ 250,≥ 250,32,8,–,–,–,–
O=C1c2ccccc2C(=O)c2c1nnn2Cc1ccccc1,–,–,–,–,–,–,–,–,Insoluble,inactive,inactive,–
CCCCn1n[n+](C)c2c1C(=O)c1ccccc1C2=O.[Cl-],2,1,≥ 250,16,≥ 250,≥ 250,32,16,–,–,–,–
Cn1nnc2c1C(=O)c1ccccc1C2=O,–,–,–,–,–,–,–,–,Insoluble,inactive,inactive,–
NCC[C@H](O)C(=O)N[C@@H]1C[C@H](N)[C@@H](O[C@H]2O[C@H](CN)[C@@H](O)[C@H](O)[C@H]2O)[C@H](O)[C@H]1O[C@H]1O[C@H](CO)[C@@H](O)[C@H](N)[C@H]1O [AMIKACIN],0.5,16,≥ 250,0.25,0.25,32,1,1,–,–,–,–
CN[C@H](CC(C)C)C(=O)N[C@H]1C(=O)N[C@@H](CC(N)=O)C(=O)N[C@H]2C(=O)N[C@H]3C(=O)N[C@H](C(=O)N[C@H](C(=O)O)c4cc(O)cc(O)c4-c4cc3ccc4O)[C@H](O)c3ccc(c(Cl)c3)Oc3cc2cc(c3O[C@@H]2O[C@H](CO)[C@@H](O)[C@H](O)[C@H]2O[C@H]2C[C@](C)(N)[C@H](O)[C@H](C)O2)Oc2ccc(cc2Cl)[C@H]1O [VANCOMYCIN],–,–,125,–,≥ 250,1,≥ 250,≥ 250,–,–,–,–
C[n+]1nn(C2CCNCC2)c2c1C(=O)c1ccccc1C2=O.[Cl-],2,2,≥ 250,16,64,≥ 250,64,32,–,–,–,–
CCn1n[n+](C)c2c1C(=O)c1ccccc1C2=O.[Cl-],1,1,≥ 250,16,≥ 250,≥ 250,32,16,–,–,–,–
CCCCCCCCn1nnc2c1C(=O)c1ccccc1C2=O,–,–,–,–,–,–,–,–,Insoluble,inactive,inactive,–
CCCCCCCCCCCCCCCCn1nnc2c1C(=O)c1ccccc1C2=O,–,–,–,–,–,–,–,–,Insoluble,inactive,inactive,–
CCCCn1nnc2c1C(=O)c1ccccc1C2=O,–,–,–,–,–,–,–,–,Insoluble,inactive,inactive,–
CCCCCCCCCCCCn1n[n+](C)c2c1C(=O)c1ccccc1C2=O.[Cl-],0.032,0.25,4,1,16,4,2,2,–,–,–,–
O=C1c2ccccc2C(=O)c2c1nnn2Cc1ccccn1,–,–,–,–,–,–,–,–,Insoluble,inactive,inactive,–

# Source: ChEMBL document CHEMBL1641534, “Synthesis and antibacterial activity study of a novel class of cationic anthraquinone analogs” (Bioorg Med Chem, 2011)
